Assay results: ChEMBL document CHEMBL4483862, “Open-source discovery of chemical leads for next-generation chemoprotective antimalarials” (2018)

Tested on: Plasmodium berghei
Test: Luciferase/luciferin-expressing antifolate-resistant parasites were used to infect a culture of HepG2 cells that were pre-incubated with compounds. Infected hepatocytes emit light due to the luciferase reaction. Assay results are presented as the percent inhibition of light emission compared to control. […]
Assay type: functional
Conditions: sporozoite; for IC90: read-out: LUCIFERASE INFECTION ASSAY - IC90
[1] = read-out: LUCIFERASE INFECTION ASSAY - IC50

| SMILES | IC90 [µM] | IC50 [1] [µM] | also measured |
| --- | --- | --- | --- |
| Cc1onc(-c2c(Cl)cccc2Cl)c1-c1nc(-c2cc(-c3ccccc3)c(C(F)(F)F)s2)cs1 | > 6.14 |  | IC50 (FFLUC_HILL_SLOPE 14.8, FFLUC_R_SQUARED 0.219, HEPG2TOX_HILL_SLOPE 0.104, HEPG2TOX_R_SQUARED 0.184, PBLUC_HILL_SLOPE 1.63, PBLUC_R_SQUARED 0.31, read-out: LUCIFERASE INFECTION ASSAY - IC50): > 6.14 µM |
| c1ccc(-n2c(SCc3nc(-c4cccs4)no3)nnc2-c2ccc3c(c2)OCO3)cc1 | 6.69 |  | IC50 (HEPG2TOX_HILL_SLOPE 1.25, HEPG2TOX_R_SQUARED 0.965, PBLUC_HILL_SLOPE 1.25, PBLUC_R_SQUARED 0.656, read-out: LUCIFERASE INFECTION ASSAY - IC50): 1.15 µM |
| FC(F)(F)Oc1cccc(-c2nc3ccnc(NCCc4ccncc4)c3[nH]2)c1 | > 10 | 3.37 |  |
| CSc1sc(-c2n[nH]cc2Br)c2c1C(=O)CC(C)(C)C2 | > 8.89 |  | IC50 (FFLUC_HILL_SLOPE 0.501, FFLUC_R_SQUARED 0.129, read-out: LUCIFERASE INFECTION ASSAY - IC50): > 8.89 µM |
| CCOc1cccc(-c2cn3c(-c4cccc(CO)c4)cnc3cn2)c1 | > 9.55 |  | IC50 (PBLUC_HILL_SLOPE 11.7, PBLUC_R_SQUARED 0.129, read-out: LUCIFERASE INFECTION ASSAY - IC50): 8.63 µM |
| CN(C)C(=O)c1nnsc1S(=O)(=O)c1ccc(Cl)cc1 | > 9.95 | 8.45 |  |
| CCOC(=O)c1c(NC(=O)Cn2c(=O)c(C#N)c3n(c2=O)CCC3)sc(C)c1CC | > 10 |  | IC50 (PBLUC_HILL_SLOPE 0.645, PBLUC_R_SQUARED 0.0864, read-out: LUCIFERASE INFECTION ASSAY - IC50): > 10 µM |
| Cc1ccc(-n2c(-c3ccc(F)cc3)nc3c2C(=O)c2ccccc2C3=O)cc1 | > 10 |  | IC50 (PBLUC_HILL_SLOPE 1.1, PBLUC_R_SQUARED 0.595, read-out: LUCIFERASE INFECTION ASSAY - IC50): 1.88 µM |
| CC(=O)NCCC(=O)N(c1ccc(Oc2ccccc2)cc1)c1nc2ccccc2s1 | > 10 |  | IC50 (PBLUC_HILL_SLOPE 4.74, PBLUC_R_SQUARED 0.599, read-out: LUCIFERASE INFECTION ASSAY - IC50): 6.78 µM |
| Cc1c(Cl)cnc(NC(=O)CSc2nnc(-c3ccccc3)o2)c1Cl | 2.88 |  | IC50 (FFLUC_HILL_SLOPE 2.78, FFLUC_R_SQUARED 0.409, HEPG2TOX_HILL_SLOPE 3.93, HEPG2TOX_R_SQUARED 0.284, PBLUC_HILL_SLOPE 2.91, PBLUC_R_SQUARED 0.621, read-out: LUCIFERASE INFECTION ASSAY - IC50): 1.35 µM |
| Cn1cc(CN2CCC3(CC2)C(=O)N(CCCc2cccnc2)C(=O)N3Cc2ccccc2)c2ccccc21 | > 6.33 |  | IC50 (PBLUC_HILL_SLOPE 1.35, PBLUC_R_SQUARED 0.738, read-out: LUCIFERASE INFECTION ASSAY - IC50): 3.23 µM |
| CSc1sc(-c2ccon2)c(-c2cccs2)c1C#N | > 10.8 | > 10.8 |  |
| COc1ccc(S(=O)(=O)Nc2ccccc2Sc2ncnc3scc(C)c23)cc1 | > 7.44 | > 7.44 |  |
| N#Cc1ccc(C(=O)Nc2nc3ccc(SC(F)F)cc3s2)cc1 | 3.39 |  | IC50 (HEPG2TOX_HILL_SLOPE 1.69, HEPG2TOX_R_SQUARED 0.978, PBLUC_HILL_SLOPE 16.3, PBLUC_R_SQUARED 0.469, read-out: LUCIFERASE INFECTION ASSAY - IC50): 2.96 µM |
| COc1cc(/C=c2\s/c(=C(/C#N)C(=O)Nc3cccc(S(=O)(=O)N4CCCCC4)c3)n(CCc3ccccc3)c2=O)ccc1OC(F)F | > 10 | > 10 |  |
| Cc1cccc(C2CC(=O)Nc3[nH]c(-c4ccccc4)nc(=O)c32)c1 (stereo not given) | > 9.96 |  | IC50 (PBLUC_HILL_SLOPE 13.4, PBLUC_R_SQUARED 0.0843, read-out: LUCIFERASE INFECTION ASSAY - IC50): 9.49 µM |
| Cc1ccc2nc(NC(=O)c3ccccc3C(F)(F)F)c(C(=O)NCC(C)C)n2c1 | 7.86 |  | IC50 (HEPG2TOX_HILL_SLOPE 8.05, HEPG2TOX_R_SQUARED 0.91, PBLUC_HILL_SLOPE 18.7, PBLUC_R_SQUARED 0.209, read-out: LUCIFERASE INFECTION ASSAY - IC50): 6.99 µM |
| CNc1snc(C)c1C(=O)NCc1csc(-c2ccccc2)n1 | 4.69 |  | IC50 (HEPG2TOX_HILL_SLOPE 1.65, HEPG2TOX_R_SQUARED 0.956, PBLUC_HILL_SLOPE 1.96, PBLUC_R_SQUARED 0.757, read-out: LUCIFERASE INFECTION ASSAY - IC50): 1.53 µM |
| CC(OC(=O)c1ccc(=O)n(Cc2ccccc2)n1)C(=O)N1CCCc2ccccc21 (stereo not given) | > 10 | > 10 |  |
| C=CCn1c(C)cc(C(=O)Cn2nnc(-c3ccccc3C)n2)c1C | > 10 |  | IC50 (PBLUC_HILL_SLOPE 0.683, PBLUC_R_SQUARED 0.219, read-out: LUCIFERASE INFECTION ASSAY - IC50): > 10 µM |

| SMILES | IC90 [µM] | IC50 [1] [µM] | also measured |
| --- | --- | --- | --- |
| CCOc1ccc(C(C)=O)cc1CSc1nc2ccccc2n1-c1cccc(C)c1 | > 10 |  | IC50 (PBLUC_HILL_SLOPE 3.51, PBLUC_R_SQUARED 0.141, read-out: LUCIFERASE INFECTION ASSAY - IC50): 7.59 µM |
| Cc1nc(SCC(=O)N2CCC(c3nc4ccccc4o3)CC2)c2c(C)c(C)sc2n1 | > 10 | > 10 |  |
| O=C1C(=O)N(CCc2ccccc2)c2c1cccc2C(F)(F)F | 5.96 |  | IC50 (FFLUC_HILL_SLOPE 10.6, FFLUC_R_SQUARED 0.162, HEPG2TOX_HILL_SLOPE 9.24, HEPG2TOX_R_SQUARED 0.771, PBLUC_HILL_SLOPE 5.11, PBLUC_R_SQUARED 0.647, read-out: LUCIFERASE INFECTION ASSAY - IC50): 3.88 µM |
| Cc1cc(=O)oc2cc(Oc3nc(CN4CCOCC4)nc4sc5c(c34)CCCC5)c(Cl)cc12 | > 10 |  | IC50 (HEPG2TOX_HILL_SLOPE 1.03, HEPG2TOX_R_SQUARED 0.724, read-out: LUCIFERASE INFECTION ASSAY - IC50): > 10 µM |
| O=C(COc1ccccc1)Nc1nc2ccccn2c1C(=O)NC1CCCC1 | > 8.72 |  | IC50 (PBLUC_HILL_SLOPE 2.22, PBLUC_R_SQUARED 0.0336, read-out: LUCIFERASE INFECTION ASSAY - IC50): 7.18 µM |
| CC(=O)Nc1ccc(-c2cnc3ccc(-c4ccc(F)c(Cl)c4)nn23)cc1 | 3.52 |  | IC50 (FFLUC_HILL_SLOPE 64.9, FFLUC_R_SQUARED 0.6, HEPG2TOX_HILL_SLOPE 8.77, HEPG2TOX_R_SQUARED 0.612, PBLUC_HILL_SLOPE 16.7, PBLUC_R_SQUARED 0.645, read-out: LUCIFERASE INFECTION ASSAY - IC50): 3.09 µM |
| COc1cc(OC)cc(C(=O)N(Cc2ccccc2)c2nc(-c3ccc(Cl)cc3Cl)cs2)c1 | > 10 | > 10 |  |
| Cc1cc(C)c(S(=O)(=O)Nc2cc3c(C(=O)Nc4ccccc4)c(C)oc3c3ccccc23)c(C)c1 | > 10 | > 10 |  |
| CCOC(=O)CN(c1cc(OC(C)C)c(Cl)cc1Cl)S(=O)(=O)c1ccc(Cl)cc1 | > 6.86 |  | IC50 (HEPG2TOX_HILL_SLOPE 6.82, HEPG2TOX_R_SQUARED 0.403, PBLUC_HILL_SLOPE 1.36, PBLUC_R_SQUARED 0.622, read-out: LUCIFERASE INFECTION ASSAY - IC50): 3.13 µM |
| Nc1nccnc1C(=O)NNC(=O)c1cc2c(s1)CCCCCC2 | 3.7 |  | IC50 (HEPG2TOX_HILL_SLOPE 2.95, HEPG2TOX_R_SQUARED 0.777, PBLUC_HILL_SLOPE 11, PBLUC_R_SQUARED 0.184, read-out: LUCIFERASE INFECTION ASSAY - IC50): 3.03 µM |
| C=C(C)C(=O)Oc1ccc(Oc2c(F)c(F)c(-c3c(F)c(F)c(Oc4ccc(OC(=O)C(=C)C)cc4)c(F)c3F)c(F)c2F)cc1 | > 10 | > 10 |  |
| Cc1cc(C(=O)Cn2c(CO)nc3ccccc32)c(C)n1Cc1ccco1 | > 10 |  | IC50 (HEPG2TOX_HILL_SLOPE 21, HEPG2TOX_R_SQUARED 0.739, PBLUC_HILL_SLOPE 1.98, PBLUC_R_SQUARED 0.61, read-out: LUCIFERASE INFECTION ASSAY - IC50): 3.71 µM |
| CCC(C)(C)c1ccc(Oc2ccc(NC(=O)CN3CCN(c4ccccc4O)CC3)cc2)cc1 | > 10 |  | IC50 (HEPG2TOX_HILL_SLOPE 8.11, HEPG2TOX_R_SQUARED 0.399, read-out: LUCIFERASE INFECTION ASSAY - IC50): > 10 µM |
| COc1ccc(C)cc1-n1c(=O)c2ccccc2n2c(SC)nnc12 | > 10 | > 10 |  |
| CC(=O)N1CCc2cc(NC(=O)C3CCN(c4ccc(C#N)cn4)CC3)ccc21 | > 10 |  | IC50 (PBLUC_HILL_SLOPE 2.56, PBLUC_R_SQUARED 0.25, read-out: LUCIFERASE INFECTION ASSAY - IC50): > 10 µM |
| CCOC(=O)c1c(-c2ccccc2)csc1NC(=O)c1cc(-c2ccco2)nc2ccccc12 | 9.72 |  | IC50 (FFLUC_HILL_SLOPE 28.5, FFLUC_R_SQUARED 0.474, PBLUC_HILL_SLOPE 2.84, PBLUC_R_SQUARED 0.759, read-out: LUCIFERASE INFECTION ASSAY - IC50): 4.48 µM |
| CN(CC(=O)Nc1ccc(Cl)c(S(=O)(=O)N2CCOCC2)c1)C(=O)/C=C/c1cccs1 | > 10 |  | IC50 (HEPG2TOX_HILL_SLOPE 0.594, HEPG2TOX_R_SQUARED 0.62, read-out: LUCIFERASE INFECTION ASSAY - IC50): > 10 µM |
| O=C(NCCNc1ccc2ccccc2c1)c1cc2ccccc2nc1Cl | > 10 |  | IC50 (PBLUC_HILL_SLOPE 1.17, 2.29, PBLUC_R_SQUARED 0.341, 0.725, read-out: LUCIFERASE INFECTION ASSAY - IC50): 5.88 µM |
| Cn1c(SCC(=O)Nc2cccc(C(=O)O)c2)nnc1-c1cnccn1 | > 8.91 | > 8.91 |  |
| Cc1ccc(Cn2nc(C)cc2C(=O)Sc2ccc(Cl)cc2)cc1 | > 9.25 |  | IC50 (FFLUC_HILL_SLOPE 19.8, FFLUC_R_SQUARED 0.763, PBLUC_HILL_SLOPE 2.54, PBLUC_R_SQUARED 0.663, read-out: LUCIFERASE INFECTION ASSAY - IC50): 5.77 µM |
